Assays:
[1] = Plasma amino acids and sulphur compounds (tCys, tHcy, glutathione, taurine); assay type: in vivo, Male C3H mice
Text: Further, SCD activity increases with high tCys concentration in both rodents and humans. tCys refers to all natural forms of circulating cysteine, such as cysteine (thiol form), cystine (disulphide form), cysteine-mixed disulphides with other thiol compounds, and protein-bound cysteine not in peptide linkage. tCys in the plasma or serum can be measured using techniques described, for example, in WO2010/010383.
(§1) Male C3H mice were used. Two cohorts of twelve mice were weaned and fed on a commercial standard diet (SDS Rat and Mouse No.3 Breeding diet (RM3)), containing 3.36 g% fat, 22.45 g % protein and 71.21 g % carbohydrate, till maturity. At 11 weeks of age, the standard diet was replaced with a high fat diet (Research Diets Inc, USA, D12492, containing 35 g % fat, from lard and soybean oil). One cohort was provided with BSO (30 mmol/L) in their drinking water, concomitant with the start of high fat feeding, while the other cohort (control group) received no treatment. The mice were kept in accordance with UK Home Office welfare guidelines and project license restrictions under controlled light (12-h light and 12-h dark cycle; dark 7 p.m.-7 a.m.), temperature (21° C.±2° C.) and humidity (55%±10%) conditions. They had free access to water (10 ppm chlorine) and food throughout the experiment.

[2] = Plasma fatty acid concentrations (free and total); assay type: in vivo, Male C3H mice; conditions: vs control
Text: as §1

[3] = system: stearoyl-coenzymeA desaturase (SCD); assay: SCD activity indices (SCD16, SCD18) from plasma fatty acid ratios; assay type: in vivo, Male C3H mice; conditions: vs control
Text: Compounds of Formula I inhibit SCD activity, which can be measured using one or more activity indices. These can be based on measurements of different fatty acid components of the blood plasma or serum.
Activity indices are based on the amount of monounsaturated fatty acids relative to their respective […] precursors. The most commonly used SCD activity indices are derived from the ratio of palmitoleic to palmitic acids (“SCD16 index”), and the ratio of oleic to stearic acid (“SCD18 index”). These ratios are lowered with increased inhibition of SCD. SCD indices can either be calculated from plasma/serum free fatty acids, or from the total fatty acid pool, which also includes esterified fatty acids (e.g. triglycerides and phospholipids). Indices calculated from free fatty acid concentrations reflect SCD activity in adipose tissue, while those from total fatty acids reflect SCD activity in liver (Warensjo et al, Lipids Health Dis 2009, 8:37). Both in rodents and humans, SCD indices are associated with fat mass.
as §1

[4] = Metabolic rate by indirect calorimetry (Oxymax); assay type: in vivo, Male C3H mice; conditions: dark and light phases, per unit weight, vs control, P<0.001
Text: (§2) Male C3H mice were used. Two cohorts of twelve mice were weaned and fed on a commercial standard diet (SDS Rat and Mouse No.3 Breeding diet (RM3)), containing 3.36 g% fat, 22.45 g % protein and 71.21 g % carbohydrate, till maturity. At 11 weeks of age, the standard diet was replaced with a high fat diet (Research Diets Inc, USA, D12492, containing 35 g % fat, from lard and soybean oil). One cohort was provided with BSO (30 mmol/L) in their drinking water, concomitant with the start of high fat feeding, while the other cohort (control group) received no treatment. […]
(§3) Phenotyping tests were performed according to the European Phenotyping Resource for Standardised Screens (EMPReSS) from EUMORPHIA standardized protocols, available at http://empress.har.mrc.ac.uk. Body mass was measured daily on scales calibrated to 0.01 g. Metabolic rate was measured using indirect calorimetry (Oxymax; Columbus Instruments) to determine oxygen consumption and carbon dioxide production. Body composition (% fat tissue and % lean tissue) was assessed utilizing an EchoMRl-100 quantitative magnetic resonance whole body composition analyzer (Echo Medical Systems, Houston, Tex.).

[5] = Body composition (EchoMRI) and dissected fat depots of mice on a high fat diet; assay type: in vivo, Male C3H mice
Text: as §1, §3

liver cells = assay: Liver histology, fat vacuolation score; assay type: in vivo, Male C3H mice; conditions: high fat diet, vs control
Text: as §1

adipocytes = conditions: Vigilanza et al; cited from earlier work
[6] = Body mass of mice on a high fat diet, BSO in drinking water, four weeks; assay type: in vivo, Male C3H mice; conditions: BSO 30 mmol/L in drinking water, over four week treatment, control group showed significant weight gain
Text: as §2, §3

[7] = Fasting plasma glucose, insulin and HOMA-IR, eight week BSO study; assay type: in vivo, Male C3H mice; conditions: after six weeks of BSO treatment, vs control
Text: as §1
Thus, BSO-treated mice had lower glucose plasma levels, and lower insulin concentrations compared to the control. […] The HOMA IR index is a calculation of insulin resistance based on fasting glucose and insulin plasma levels, the calculation being known to those skilled in the art. Leptin plasma levels are also shown.
(§4) For the results presented in FIGS. 23 and 24, the experiments were carried out using the same conditions as described above (i.e. same mouse strain, mouse age, diet, and experimental design) except that the mice were treated for eight weeks with BSO, and the plasma for insulin, glucose, and leptin analysis was drawn after a 6-hour fast, after six weeks of BSO treatment.

[8] = rats, Ogihara et al; cited from earlier work
[9] = Findeisen et al, cited from earlier work
[10] = Plasma and liver reduced and total glutathione, eight week BSO study; assay type: in vivo, Male C3H mice; conditions: eight weeks BSO, vs control
Text: as §1, §4

[11] = Plasma ALT, lipid components, glucose and glycerol; assay type: in vivo, Male C3H mice; conditions: vs control
Text: as §1

[12] = dissected mice, vs control, P<0.001

**Q.** Which “concentration of amino acids in the plasma” value ([1]; difference between BSO and control cohorts) does the source give for `CCCCS(=N)(=O)CCC(N)C(=O)O` (centres unmarked) [BSO, buthionine sulfoximine] here?
**A.** little difference

**Q.** And the plasma glutathione concentrations ([1]; four week study, vs control)?
**A.** decrease

**Q.** What about the “total homocysteine (tHcy) plasma concentrations” value ([1]; vs control) of the same compound?
**A.** larger concentrations

**Q.** And the plasma taurine concentrations ([1]; vs control cohort)?
**A.** substantially lower

**Q.** What about the “plasma tCys concentrations” value ([1]; vs controls, all measured forms of cysteine) of the same compound?
**A.** significantly and substantially lower

**Q.** And the “fatty acid plasma concentrations, a number of C14 to C22 fatty acids” value ([2]; free and total fatty acids)?
**A.** lower

**Q.** What about the “free palmitic acid plasma concentration” value [2] of the same compound?
**A.** lower

**Q.** What about the “free palmitoleic acid plasma concentration” value [2] of the same compound?
**A.** lower

**Q.** What about the “oleic acid to stearic acid ratio (SCD18 index)” value ([3]; free fatty acids in plasma) of the same compound?
**A.** lower

**Q.** What about the “ratio of palmitoleic acid to palmitic acid (SCD16 index)” value ([3]; free fatty acids in plasma) of the same compound?
**A.** lower

**Q.** And the “unsaturated/saturated fatty acid ratios (SCD16 and SCD18 activity indices)” value ([3]; total fatty acid concentrations in plasma)?
**A.** lower

**Q.** What about the carbon dioxide production [4] of the same compound?
**A.** greater

**Q.** And the oxygen consumption [4]?
**A.** significantly greater

**Q.** What about the “amount of brown fat mass” value ([5]; dissected mice, vs control) of the same compound?
**A.** similar

**Q.** And the “abdominal fat as a percentage of total body weight” value [5, 12]?
**A.** significantly lower

**Q.** What about the “quantity of abdominal fat in grams” value [5, 12] of the same compound?
**A.** significantly lower

**Q.** And the lean mass ([5]; echo MRI, difference between BSO and control cohorts)?
**A.** only a relatively small difference

**Q.** And the “quantity of body fat” value ([5]; echo MRI, vs control mice, high fat diet)?
**A.** substantially lower

**Q.** And the “brown fat as a percentage of total fat mass” value ([5]; vs control, P<0.05)?
**A.** higher

**Q.** What about the “abdominal fat mass as a percentage of total fat mass” value ([5]; vs control, P=0.055) of the same compound?
**A.** trend towards decrease

**Q.** What about the liver fat vacuolation (liver cells) of the same compound?
**A.** absent

**Q.** What about the adipogenesis (adipocytes) of the same compound?
**A.** increased adipogenesis

**Q.** What about the intracellular glutathione (adipocytes) of the same compound?
**A.** decreases

**Q.** What about the triglycerides in adipocytes (adipocytes) of the same compound?
**A.** triglyceride accumulation

**Q.** What about the body weight [6] of the same compound?
**A.** reduction in body weight

**Q.** What about the glucose plasma levels ([7]; 6-hour fast) of the same compound?
**A.** lower

**Q.** What about the insulin plasma concentrations ([7]; 6-hour fast) of the same compound?
**A.** lower

**Q.** And the “HOMA insulin-resistance (IR) index” value ([7]; from fasting glucose and insulin)?
**A.** significantly lower

**Q.** What about the insulin resistance [8] of the same compound?
**A.** induces insulin resistance

**Q.** And the insulin sensitivity [9]?
**A.** preserve insulin sensitivity

**Q.** And the diet-induced obesity ([9]; mice)?
**A.** reduce

**Q.** What about the energy expenditure ([9]; mice) of the same compound?
**A.** increase

**Q.** And the locomotor activity ([9]; mice)?
**A.** increase

**Q.** What about the “liver rGSH levels” value [10] of the same compound?
**A.** similar

**Q.** What about the “liver rGSH/tGSH ratio” value [10] of the same compound?
**A.** higher

**Q.** What about the “liver tGSH levels” value [10] of the same compound?
**A.** lower

**Q.** And the “plasma rGSH/tGSH ratio” value [10]?
**A.** similar

**Q.** What about the “plasma reduced glutathione (rGSH)” value [10] of the same compound?
**A.** lower

**Q.** And the “plasma total glutathione (tGSH)” value [10]?
**A.** lower

**Q.** What about the plasma glucose ([11]; four week study) of the same compound?
**A.** decreased

**Q.** What about the plasma glycerol [11] of the same compound?
**A.** decreased

**Q.** What about the “plasma high density lipoprotein (HDL)” value [11] of the same compound?
**A.** lower

**Q.** And the “plasma low density lipoprotein (LDL)” value [11]?
**A.** lower

**Q.** What about the “plasma non-esterified fatty acids” value [11] of the same compound?
**A.** lower

**Q.** And the plasma total cholesterol [11]?
**A.** lower

**Q.** And the plasma triglycerides ([11]; lower, particularly so)?
**A.** lower

**Q.** What about the “plasma ALT concentrations” value ([11]; marker of NAFLD) of the same compound?
**A.** substantially lower

Reference: US20170172958A1, “Compounds for Use in Controlling Body Fat” (priority 2014, published 2017)
